Six compounds from patent US11534434B2 (Karuna Therapeutics, Inc., priority 2019, dated 2022) can be followed below.

For data set [1], the target named is T1, human M4 mAChR (Homo sapiens, UniProt P08173).
T1 construct: expressed in transfected cells
T1 sequence (P08173 1-479): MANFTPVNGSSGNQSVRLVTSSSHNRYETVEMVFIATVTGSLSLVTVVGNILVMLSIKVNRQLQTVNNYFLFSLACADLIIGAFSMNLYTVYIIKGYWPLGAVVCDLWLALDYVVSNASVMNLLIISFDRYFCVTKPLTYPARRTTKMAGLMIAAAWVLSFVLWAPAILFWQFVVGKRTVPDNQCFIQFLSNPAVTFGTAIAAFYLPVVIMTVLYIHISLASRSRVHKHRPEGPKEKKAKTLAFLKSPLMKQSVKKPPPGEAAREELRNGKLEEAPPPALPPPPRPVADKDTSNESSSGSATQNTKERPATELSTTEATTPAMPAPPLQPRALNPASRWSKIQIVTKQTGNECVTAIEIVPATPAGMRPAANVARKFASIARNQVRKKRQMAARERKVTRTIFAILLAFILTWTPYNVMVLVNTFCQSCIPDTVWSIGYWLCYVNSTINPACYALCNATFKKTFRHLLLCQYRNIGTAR
The data set can be described thus: Whole-cell functional agonist activity, phospho-ERK (pERK), CHOK1-based human M4 mAChR stable cell line. The settings on record: for EC50: agonist, CHOK1 human M4 cells; for M4 Top (%): top of curve, % of min (DMSO) and max (10 mM Acetylcholine) responses. As to the method:
(§1) Whole-cell functional agonist activity in cells expressing recombinant human muscarinic receptor subtypes.
(§2) ThermoFisher's FLIPR™ (Fluorescence Imaging Plate Reader) was used to quantify Ca^2+ release, a functional effect associated with Gaq-coupled M1 and M5 mAChRs. CisBio's phospho-ERK (pERK) Thr202/Tyr204 was used to evaluate Gai/o-coupled M2 and M4 mAChRs responses.
(§3) Percentage activity was calculated using the following formula: % Activity=100%×(mean RFU of test sample mean RFU of vehicle control)/(mean MAX RFU control ligand mean RFU of vehicle control) where RFU is relative fluorescence unit. The M2 and the M4 cells were thawed out one day before the assay and plated at 2,000 and 1,000 cells per well, respectively, in […] of DMEM/F12+10% FBS in ProxiPlate 384-well white-walled, white-bottom tissue culture-treated plates and incubated at 37° C. and 5% CO2 overnight. Before the assay, cells were serum-starved at 37° C. in 5% CO2 for 4 hours by replacing culture media with […] of F12 media with 8 mM HEPES. The pERK assay was run according to assay kit instructions with minor volume modifications outlined below.
Compound addition was carried out by adding 3× compound solution in […] of media with 0.3% DMSO (made from a 10 mM compound stock solution in 100% DMSO) for 5 minutes before the reaction was terminated by adding […] lysis and blocking solution. Cells were left in the lysis solution for 30 minutes before […] of antibody (Eu and d2) solution was added for an additional 2-hour incubation while protected from light. The plates were then read on laser Pherastar using the TR-FRET protocol.

Data set [2] can be described thus: Human liver microsome stability. It is filed as in vitro ADME. The settings on record: human liver microsomes; for microsomal CLint at 100 nM: apparent intrinsic clearance, no unit in table (μL/min/pmol, μL/min/mg or μL/min/Mcell); for Parent at 60 min (%) / half-life at 100 nM: 100 nM, 37° C., tartrate salt. As to the method:
Human Liver Microsome Stability
Test compounds were dissolved in DMSO to prepare 10 mM stock solutions, diluted to a final test concentration of 100 nM, and incubated at 37° C. with human liver microsomes. Metabolic stability, expressed as a percent of the parent compound remaining, was assessed at 0, 15, 30, 45, and 60 minutes and calculated by comparing the compound's peak area at the time point relative to that at time-0. The half-life (T1/2) was estimated from the slope of the initial linear range of the logarithmic curve of compound remaining (%) vs. time, assuming first-order kinetics. The apparent intrinsic clearance (CLint, in μL/min/pmol, μL/min/mg or μL/min/Mcell) was calculated according to the following formula: CLint=0.693 T1/2*(mg protein/μL or million cells/μL or pmol CYP isoyme/μL).
(Microsomes from liver hold many membrane-bound enzymes, among them those of drug oxidation.)

Data set [3] concerns the target T2, human M3 mAChR (Homo sapiens, UniProt P20309).
T2 construct: expressed in transfected cells
The data set can be described thus: Whole-cell functional agonist activity, FLIPR Ca2+ release, U2OS-based human M3 mAChR stable cell line. The settings on record: for EC50: agonist, FLIPR Ca2+ release, U2OS human M3 cells; for Emax: top of curve, % activity vs MAX control ligand, FLIPR Ca2+.
Source text: as §1, §2
One day before the assay, M1, M3, and M5 cells were thawed out and plated at 10,000 cells/well into black-walled, clear-bottom, Poly-D-lysine coated 384-well microplates and incubated at 37° C. and 5% CO2 in MEME+10% FBS+1× penicillin/streptomycin/glutamine, for the M1 and M3 cell lines and F-12+10% FBS+1× penicillin/streptomycin/glutamine for the M5 cell line. On the day of the test, the media was aspirated and replaced with […] fluo-4 dye loading buffer (1× dye, 1× additive A and 2.5 mM fresh probenecid in HBSS and 20 mM HEPES) and incubated at 37° C. and 5% CO2 for 45 minutes. After the incubation, cells were removed from the incubator, […] of HBSS and 20 mM HEPES was added for a total volume of […], and the cells were allowed to equilibrate at room temperature for 15 minutes in the dark before compounds were applied, by adding 4× compound solution in […] of HBSS, 0.4% DMSO and 20 mM HEPES buffer (made from a 10 mM compound stock solution in 100% DMSO), and responses were recorded for 2 minutes in FLIPR Tetra after compound administration. The M1 and M5 responses were analyzed using the CBIS data analysis suite (ChemInnovation, CA).
as §3

Data set [4] can be described thus: Storage stability of the tartrate salt (reanalysis by LC-MS, 1H NMR, 19F NMR). The format is physicochemical. The settings on record: six months of storage at 0° C.; LC-MS, 1H NMR, 19F NMR. Here is the method: The tartrate salt of the title compound was unstable at test storage conditions. Although the initial NMR spectra were clean, the LCMS purity was about 75%. After storage at 0° C. for six months, the sample was reanalyzed by ^1H-NMR, ^19F-NMR, and LC-MS.

T2 sequence (P20309 whole entry): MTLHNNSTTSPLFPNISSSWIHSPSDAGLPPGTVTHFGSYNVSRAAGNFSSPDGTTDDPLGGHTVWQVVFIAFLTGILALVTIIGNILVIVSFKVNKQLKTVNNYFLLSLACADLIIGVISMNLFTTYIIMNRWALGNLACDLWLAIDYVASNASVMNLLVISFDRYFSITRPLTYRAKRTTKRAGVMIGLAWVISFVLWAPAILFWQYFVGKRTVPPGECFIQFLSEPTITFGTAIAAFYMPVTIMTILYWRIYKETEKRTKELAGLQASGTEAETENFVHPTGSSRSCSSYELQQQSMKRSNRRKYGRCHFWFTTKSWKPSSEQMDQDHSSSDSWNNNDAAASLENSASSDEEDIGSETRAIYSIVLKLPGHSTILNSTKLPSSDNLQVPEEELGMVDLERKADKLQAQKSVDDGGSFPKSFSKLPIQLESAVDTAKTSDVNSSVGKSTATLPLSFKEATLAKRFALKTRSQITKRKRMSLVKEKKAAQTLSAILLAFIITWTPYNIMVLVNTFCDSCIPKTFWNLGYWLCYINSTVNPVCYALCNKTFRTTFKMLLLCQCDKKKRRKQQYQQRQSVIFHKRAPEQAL

In the case of `CCCCC(F)(F)COc1nsnc1C1=CCCN(C)C1` [Example 11, 3-((2,2-Difluorohexyl)oxy)-4-(1-methyl-1,2,5,6-tetrahydropyridin-3-yl)-1,2,5-thiadiazole], in data set [1], the concentration giving a half-maximal response (EC50) (commonly the concentration that produces a half-maximal response) amounted to 374 nM and the “M4 Top (%)” value was 62%. In data set [2], the intrinsic clearance (microsomal CLint) – broadly, the rate of metabolic loss divided by the concentration – at 100 nM was 2000 µL/min/mg; the “Parent at 60 min (%)” value was determined as 7%; the half-life (in general, how long it takes for the measured level to halve) at 100 nM stood at 3 min. In data set [3], the EC50 is more than 10000 nM and the maximal effect (Emax) – broadly, the size of the effect at its maximum, as opposed to the concentration needed – is 3%.

Regarding `CCC(F)(F)CCCOc1nsnc1C1=CCCN(C)C1` [Example 9, 3-((4,4-Difluorohexyl)oxy)-4-(1-methyl-1,2,5,6-tetrahydropyridin-3-yl)-1,2,5-thiadiazole], in data set [1], the EC50 is more than 34 nM and the “M4 Top (%)” value was determined as 5%. In data set [2], the microsomal CLint at 100 nM was determined as 576 µL/min/mg, the “Parent at 60 min (%)” value is 3% and the half-life at 100 nM is 12 min. Also, in data set [3], the EC50 was more than 10000 nM and the Emax was 2%.

Regarding `CN1CCC=C(c2nsnc2OCCCCCC(F)F)C1` [Example 6, 3-((6,6-difluorohexyl)oxy)-4-(1-methyl-1,2,5,6-tetrahydropyridin-3-yl)-1,2,5-thiadiazole], in data set [1], the response was half-maximal at 11 nM (EC50) and the “M4 Top (%)” value came to 108%. In addition, in data set [2], the microsomal CLint at 100 nM came out at 413 µL/min/mg, the “Parent at 60 min (%)” value is 8% and the half-life at 100 nM is 17 min. In data set [3], this compound displayed an EC50 of more than 10000 nM and an Emax of 11%.

As to `CN1CCC=C(c2nsnc2OCCCCCC(F)(F)F)C1` [Example 1, 3-(1-Methyl-1,2,5,6-tetrahydropyridin-3-yl)-4-((6,6,6-trifluorohexyl)oxy)-1,2,5-thiadiazole], in data set [1], the EC50 amounted to 15.7 nM and the “M4 Top (%)” value is recorded as 82%. Further, in data set [2], the microsomal CLint at 100 nM is 447 µL/min/mg, the “Parent at 60 min (%)” value is 7% and the half-life at 100 nM was 16 min. In data set [3], this compound gave an EC50 of more than 10000 nM and an Emax of 16%. In addition, the “storage stability of tartrate salt” value in data set [4] is on record as “no meaningful changes were observed”.

Turning to `CN1CCC=C(c2nsnc2OCCCCCCF)C1` [Example 7, 3-((6-Fluorohexyl)oxy)-4-(1-methyl-1,2,5,6-tetrahydropyridin-3-yl)-1,2,5-thiadiazole], in data set [1], the half-maximal effective concentration (EC50) was found to be 8.3 nM and the “M4 Top (%)” value stood at 112%. In addition, in data set [2], the microsomal CLint at 100 nM came out at 553 µL/min/mg, the “Parent at 60 min (%)” value was 3% and the half-life at 100 nM turned out to be 13 min. For the same compound, in data set [3], the EC50 is more than 10000 nM and the Emax came out at 7%.

For `CN1CCC=C(c2nsnc2OCCCCC(C)(F)F)C1` [Example 8, 3-((5,5-Difluorohexyl)oxy)-4-(1-methyl-1,2,5,6-tetrahydropyridin-3-yl)-1,2,5-thiadiazole], in data set [1], the response was half-maximal at 12.6 nM (EC50) and the “M4 Top (%)” value amounted to 48%. Also, in data set [2], the intrinsic metabolic clearance (microsomal CLint) at 100 nM was 711 µL/min/mg, the “Parent at 60 min (%)” value was 2% and the half-life at 100 nM worked out at 10 min. In data set [3], the EC50 is more than 10000 nM and the maximum response (Emax) amounted to 7%.
